The source of these data is US20200054651A1, “COMPOSITIONS AND METHODS FOR MODULATING PPP2R1A” (The Regents of the University of California, priority 2017, published 2020).

Series [1] has as its system HCC38 cells. The series is described as follows: HCC38 serum-free cell survival. It is filed as cell-based. The following applies: 10 μM, 48 h.
Series [2] has as its system HCC38 cells. The series can be described thus: HCC38 cell proliferation. It is filed as cell-based. The conditions noted are these: 10 μM, 48 h.
Series [3] addresses T1, PP2A complex with wild-type PPP2R1A, PPP2R2A and PPP2CA (Homo sapiens, UniProt P30153).
T1 construct: PPP2CA protein TP301334) TP301334; host or cells: HEK293T
The series can be described thus: In vitro PP2A activity assay (phosphate release from phosphopeptide). The series is classed as biochemical. The following applies: 30 min prior to assay. The procedure:
Wild-type mammalian expression plasmids with C-terminal FLAG tag were purchased from Origene (PPP2R1A: RC200056; PPP2R2A, MR207137). The PPP2R1A C337A mutant was generated with Agilent QuickChange Lightning site-directed mutagenesis kit according to manufacturer's instructions. […] Immediately prior to transfection, media was replaced with DMEM+5% FBS. Each plate was transfected with 20 μg of overexpression plasmid with 100 μg PEI (Sigma). After 48 hrs cells were collected in TBS, lysed by sonication, and batch bound with anti-DYKDDDDK (SEQ ID NO: 1) resin (GenScript) for 1 hr. Lysate and resin was loaded onto a gravity flow column and washed, followed by elution with 250 ng/uL 3×FLAG peptide (ApexBio A6001). Purity and concentration were verified by PAGE, UV/Spectroscopy, and BCA assay.
Activity was assayed by addition of 60 μM Thr phosphopeptide (KRpTIRR, Millipore, 12-219) at 37° C. for 25 min, and free phosphate was detected colorimetrically by malachite green kit (Cayman 10009325) per manufacturer's instructions.

Series [4] has as its system 231MFP breast cancer cells. The series is described as follows: Metabolomic profiling (SRM-based LC-MS/MS) in 231MFP cells. The following applies: 5 h. The series is classed as cell-based. The procedure: For polar metabolites, cell pellets were extracted in a mixture of acetonitrile/methanol/water (40:40:20), with inclusion of D3-15N-serine (10 nM) as an internal standard. Insoluble debris was separated via centrifugation at 13,000 rpm for 10 minutes. For nonpolar metabolites, metabolomes were extracted in 2:1 chloroform:methanol (3 ml) and PBS (1 ml) with inclusion of dodecylglycerol (10 nmol) and pentadecanoic acid (10 nmol) as internal standards. Organic and aqueous layers were separated by centrifugation at 1000×g for 5 minutes; the organic layer was collected, dried under a stream of nitrogen, and then dissolved in chloroform (120 μl). An aliquot of the nonpolar or polar extracts were then injected into an Agilent 6460 or 6430 QQQ-LC/MS/MS system. Separation of polar metabolites was achieved using normal-phase chromatography with a Luna NH2 column (5 mm) using a mobile phase (Buffer A: acetonitrile; Buffer B, 95:5 water/acetonitrile; with a modifier of 0.1% formic acid or 0.2% ammonium hydroxide) along with ammonium acetate (50 mM) for positive and negative ionization mode, respectively. The following gradient was used for each run: 0% B for 5 minutes (flow rate: 0.2 mL/min), 0% B to 100% B (linear) over 15 min (flow rate: 0.7 mL/min), then followed by an isocratic gradient of 100% B for 5 minutes (flow rate: 0.7 mL/min) and then 0% B for 5 minutes (flow rate of 0.7 mL/min). For nonpolar metabolites, metabolomes were separated using reverse-phase chromatography with a Luna C5 column (50 mm×4.6 mm with 5 μm diameter particles). Mobile phase A consisted of 95:5 ratio of water/methanol and mobile phase B consisted of 2-propanol, methanol, and water in a 60:35:5 ratio. Solvent modifiers of 0.1% formic acid, 5 mM ammonium formate, and 0.1% ammonium hydroxide were used to assist ion formation as well as to improve the LC resolution in both positive and negative ionization modes, respectively. The flow rate for each run started at 0.1 ml/min for 5 minutes to alleviate backpressure associated with injecting chloroform. The gradient started at 0% B and increased linearly to 100% B over the course of 45 min with a flow rate of 0.4 ml/min, followed by an isocratic gradient of 100% B for 17 minutes at 0.5 ml/min before equilibrating for 8 minutes at 0% B with a flow rate of 0.5 ml/min.
MS analysis was performed with an electrospray ionization (ESI) source on an Agilent 6430 or 6460 QQQ LC-MS/MS system. The capillary voltage was set to 3.0 kV, and the fragmentor voltage was set to 100 V. The drying gas temperature was 350° C., the drying gas flow rate was 10 L/min, and the nebulizer pressure was 35 psi. […] Metabolite levels are expressed as relative abundances as compared to controls.

The subject of series [5] is MCF7 cells. The series can be described thus: MCF7 cell proliferation. The series is classed as cell-based. The following applies: 10 μM, 48 h.
The target of a further series is T2, pure human vimentin (Homo sapiens, UniProt P08670).
T2 construct: purchased Origene
The series is described as follows: Gel-based ABPP, competition against IAyne labeling. The conditions noted are these: 10 μM, 30 min at 37° C. It is filed as binding. The procedure:
(§1) Gel-based ABPP methods were performed using the methods described in “Chem Biol 22(10), 1394-1405 (2015)” by Medina-Cleghorn D., et al. Recombinant pure human proteins were purchased from Origene. Pure proteins were pre-treated with DMSO, Withaferin A, or acrylamide or chloroacetamide compounds (e.g., DKM 2-90 or JNS 1-40) for 30 minutes at 37° C. in an incubation volume of PBS (50 μL), and were subsequently treated with IAyne (10 μM final concentration) for 30 minutes at room temperature. CuAAC was performed to append rhodamine-azide onto IAyne probe-labeled proteins. The samples were separated by SDS/PAGE and scanned using a ChemiDoc MP. Inhibition of target labeling was assessed by densitometry using ImageStudio Light software.

The target of the next series is T3, pure human KEAP1 (Homo sapiens, UniProt Q14145).
T3 construct: purchased Origene
The series can be described thus: Gel-based ABPP, competition against IAyne labeling. The series is classed as binding. The conditions noted are these: 10 μM, 30 min at 37° C. The procedure: as §1

The test system of series [6] is MCF7 cells. The series can be described thus: MCF7 serum-free cell survival. The following applies: 10 μM, 48 h. The series is classed as cell-based.
The nature of series [7]: In vivo tolerability during xenograft treatment. The conditions noted are these: daily treatment for >30 days, 50 mg/kg ip.
In the next series the test system is 231MFP tumor xenograft. The series is described as follows: 231MFP tumor xenograft growth. The conditions noted are these: 50 mg/kg ip, daily, initiated 15 days after tumor xenograft injection. The series is classed as in vivo, immune-deficient SCID mice.
Series [8] concerns MCF 10A non-transformed mammary epithelial cells. The series can be described thus: MCF 10A cell proliferation (toxicity to non-transformed cells). It is filed as cell-based. The following applies: 48 h after treatment, Hoescht staining.

T1 sequence (P30153 whole entry): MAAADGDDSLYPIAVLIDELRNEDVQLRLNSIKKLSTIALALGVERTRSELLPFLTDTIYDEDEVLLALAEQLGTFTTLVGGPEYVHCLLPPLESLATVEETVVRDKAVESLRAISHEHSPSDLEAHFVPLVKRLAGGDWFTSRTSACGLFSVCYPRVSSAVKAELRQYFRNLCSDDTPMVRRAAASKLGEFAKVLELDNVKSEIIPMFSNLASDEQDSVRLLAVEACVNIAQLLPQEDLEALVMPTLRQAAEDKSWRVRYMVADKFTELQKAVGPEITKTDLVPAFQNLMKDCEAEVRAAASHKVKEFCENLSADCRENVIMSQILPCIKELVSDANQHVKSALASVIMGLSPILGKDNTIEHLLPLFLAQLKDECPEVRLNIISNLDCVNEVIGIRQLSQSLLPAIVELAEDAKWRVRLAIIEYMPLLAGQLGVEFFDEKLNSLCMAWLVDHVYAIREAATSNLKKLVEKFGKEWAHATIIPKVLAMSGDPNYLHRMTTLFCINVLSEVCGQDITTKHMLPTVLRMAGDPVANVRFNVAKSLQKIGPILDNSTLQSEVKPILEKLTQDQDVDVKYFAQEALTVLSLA
T1 sequence (Q6P1F6 whole entry partner): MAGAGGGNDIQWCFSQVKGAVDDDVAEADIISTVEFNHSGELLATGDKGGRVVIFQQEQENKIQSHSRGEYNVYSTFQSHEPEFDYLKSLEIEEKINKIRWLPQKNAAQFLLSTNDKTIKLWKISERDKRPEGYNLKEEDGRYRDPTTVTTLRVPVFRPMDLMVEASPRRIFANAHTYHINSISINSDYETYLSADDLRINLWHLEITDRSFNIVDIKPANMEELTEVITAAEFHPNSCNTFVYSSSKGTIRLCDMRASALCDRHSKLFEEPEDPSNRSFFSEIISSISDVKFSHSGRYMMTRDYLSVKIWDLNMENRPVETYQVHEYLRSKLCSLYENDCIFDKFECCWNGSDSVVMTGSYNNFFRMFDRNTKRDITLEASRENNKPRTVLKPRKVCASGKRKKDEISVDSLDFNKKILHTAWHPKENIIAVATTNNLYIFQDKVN
T1 sequence (P67775 whole entry partner): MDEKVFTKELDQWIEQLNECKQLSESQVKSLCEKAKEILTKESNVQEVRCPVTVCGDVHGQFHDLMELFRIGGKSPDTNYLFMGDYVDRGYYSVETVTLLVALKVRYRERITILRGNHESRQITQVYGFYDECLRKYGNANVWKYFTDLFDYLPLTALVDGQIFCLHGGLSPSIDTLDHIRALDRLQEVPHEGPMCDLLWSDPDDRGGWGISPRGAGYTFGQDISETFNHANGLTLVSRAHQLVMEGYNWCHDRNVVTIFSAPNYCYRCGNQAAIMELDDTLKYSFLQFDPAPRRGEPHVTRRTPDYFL
T3 sequence (Q14145 whole entry): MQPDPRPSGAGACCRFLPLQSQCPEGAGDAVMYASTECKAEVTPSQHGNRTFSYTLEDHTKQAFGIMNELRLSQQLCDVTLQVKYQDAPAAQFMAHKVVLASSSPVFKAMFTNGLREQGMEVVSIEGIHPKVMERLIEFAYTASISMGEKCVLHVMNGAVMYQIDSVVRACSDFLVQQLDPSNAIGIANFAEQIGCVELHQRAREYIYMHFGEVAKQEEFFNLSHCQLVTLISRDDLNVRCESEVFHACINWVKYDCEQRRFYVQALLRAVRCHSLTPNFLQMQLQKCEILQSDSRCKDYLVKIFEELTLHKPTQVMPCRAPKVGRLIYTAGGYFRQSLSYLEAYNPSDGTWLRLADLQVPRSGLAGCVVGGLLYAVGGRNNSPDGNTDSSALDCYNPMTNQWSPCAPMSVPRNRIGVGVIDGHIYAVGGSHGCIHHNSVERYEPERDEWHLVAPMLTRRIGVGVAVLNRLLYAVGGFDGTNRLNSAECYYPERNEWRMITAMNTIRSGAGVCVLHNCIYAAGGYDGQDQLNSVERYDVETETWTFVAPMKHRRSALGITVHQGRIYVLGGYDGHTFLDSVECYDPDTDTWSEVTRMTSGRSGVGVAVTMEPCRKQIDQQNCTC
T2 sequence (P08670 whole entry): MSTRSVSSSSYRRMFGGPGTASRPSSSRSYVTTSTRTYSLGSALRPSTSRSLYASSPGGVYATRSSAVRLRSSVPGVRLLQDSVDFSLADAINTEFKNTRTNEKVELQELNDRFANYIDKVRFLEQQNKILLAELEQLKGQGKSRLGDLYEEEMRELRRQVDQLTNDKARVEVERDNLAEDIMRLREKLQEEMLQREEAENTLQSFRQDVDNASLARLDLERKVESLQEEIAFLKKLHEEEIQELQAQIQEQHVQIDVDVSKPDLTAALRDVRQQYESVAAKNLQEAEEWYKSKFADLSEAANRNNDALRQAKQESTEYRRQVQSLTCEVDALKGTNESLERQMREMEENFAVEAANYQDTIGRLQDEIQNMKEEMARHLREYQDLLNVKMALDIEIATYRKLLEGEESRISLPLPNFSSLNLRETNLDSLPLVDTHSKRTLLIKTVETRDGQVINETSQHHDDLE

For the compound `CC1=C(CO)C(=O)O[C@@H]([C@@H](C)[C@H]2CC[C@H]3[C@@H]4C[C@H]5O[C@]56[C@@H](O)C=CC(=O)[C@]6(C)[C@H]4CC[C@]23C)C1` [withaferin A, reference compound], the serum-free cell survival entry with HCC38 cells [1] is on record as “impairs”. Besides, the cell proliferation result in the series on HCC38 cells [2] is “impairs”. Moreover, in series [3] (10 μM), the “PP2A activity, wild-type PPP2R1A” value is “activated PP2A activity”. Further, in series [4] (10 μM), the ATP level result was “Reductions”, the “LPA (lysophosphatidic acid) level” value is on record as “reductions”, the “acetyl CoA level” value is recorded as “reduced” and the lactic acid level result is “reduced”. Moreover, in series [4] (10 μM), the phosphoenolpyruvate level result is listed as “reduced” and the phosphoglycerate level result is given as “reduced”. Also, the cell proliferation entry in the series with MCF7 cells [5] is given as “impairs”. The “competition against IAyne labeling of pure human vimentin” value at pure human vimentin is given as “lack of competition”. At pure human KEAP1, the “competition against IAyne labeling of pure human KEAP1” value is listed as “no competition”. Also, the serum-free cell survival result in the series on MCF7 cells [6] is “impairs”.
Consider `O=C(CCl)N(Cc1ccccc1)c1ccc2c(c1)OCCO2` [JNS 1-40, N-benzyl-2-chloro-N-(2,3-dihydrobenzo[b][1,4]dioxin-6-yl)acetamide], for which the “overt toxicity or body weight loss” value in series [7] is “did not cause any overt toxicity or body weight loss”. In the series on 231MFP tumor xenograft, the “231MFP tumor xenograft growth” value is “significantly attenuated tumor growth”. In addition, the “PP2A activity, wild-type PPP2R1A” value in series [3] (100 μM) is on record as “activated PP2A activity”.
With `O=C(CCl)Nc1ccc2c(c1)OCCO2` [DKM 2-90, 2-Chloro-N-(2,3-dihydrobenzo[β][1,4]dioxin-6-yl)acetamide], the “toxicity to MCF 10A cells (cell proliferation)” value in [8] is on record as “less toxic than DKM 2-91”. For the same compound, in series [4] (100 μM), the ATP level result is given as “Reductions”, the “LPA (lysophosphatidic acid) level” value was “reductions”, the “acetyl CoA level” value was “reduced” and the lactic acid level entry is given as “reduced”. For the same compound, in [4] (100 μM), the phosphoenolpyruvate level result is on record as “reduced” and the phosphoglycerate level entry is on record as “reduced”.
